{"source": "patent US5968838A", "about": "“Antiarrhythmic peptide from venom of spider Grammostola spatulata” (priority 1998, dated 1999)", "assay_type_in_all_cases": "cell-based, Rat", "key": {"L-type Ca^2+ channels": {"tested_on": "L-type Ca^2+ channels", "assay": "Depolarization (high K+) induced Ca2+ increase in GH3 cells, three consecutive depolarizations", "experimental": "After loading with Fura-2, the cover slip containing the GH3 cells was mounted in a custom made holder and placed in a quartz cuvette at an angle of 20 degrees to the excitation beam. The cells on the cover slip were exposed to various test solutions and the changes in calcium ion concentration were measured according to the following method. Fluorescence emission was collected from a group of about 10^5 cells located in the excitation path. Excitation beams at 340 nm (Ex340nm) and 380 nm (Ex380 nm) were used and the fluorescence intensities at 510 nm (Em5 10 nm) were monitored. […] Fluorescence emission data was collected for times up to 600 to 1200 seconds depending on the solution added to the cells. […]"}, "[1]": {"tested_on": "stretch activated channel", "assay": "Fura-2 fluorescence ratio measurement of stretch activated channel activity: hypotonic cell swelling induced calcium increase (HICI) in GH3 cells", "protocol": "(§1) Rat pituitary cell line GH3 was provided by Dr. S. Simasko, Department of VCAPP, Washington State University, Pullman, Wash., 99164 and the American Type Culture Collection, Rockville, Md. The cells were cultured in standard medium containing 82.5% Ham's F-10 nutrients (Gibco, Gaithersburg, Md.), 15 % heat inhibited horse serum (Gibco) and 2.5% fetal bovine serum (Gibco) at 37C in 10% CO2. Cells were fed twice per week and subcultured once per week. For Fura-2 fluorescence measurements, cells were plated on poly-L-lysine coated glass cover slips at 95% confluency, cultured under normal conditions and used between 3 to 6 days after plating.\nCa^2+ was measured on an SLM AB-2 fluorescence spectrometer (SLM Instruments, Rochester, N.Y.). Cells plated on poly-L-lysine coated glass cover slips were loaded with Fura-2 in a loading solution containing 2 micromolar Fura-2/AM (disclosed in Grynkiewicz, G. et al., (1985) Journal of Biological Chemistry 260: 3440-3450) according to the following procedure. Cells were washed twice in phosphate buffered saline (PBS) solution. Cells were then incubated in the loading solution for 30 minutes at 25C. The cells were rinsed twice with PBS and incubated in the culture medium for 30 minutes at 25C. Experiments were performed within 1 hour after loading. […]\nAfter loading, the plated cells were exposed to various hypotonic and isotonic solutions and test solutions containing spider venom. Changes in the calcium ion concentration were measured according to the following method.\nAfter loading with Fura-2, the cover slip containing the GH3 cells was mounted in a custom made holder and placed in a quartz cuvette at an angle of 20 degrees to the excitation beam. The cells on the cover slip were exposed to various test solutions and the changes in calcium ion concentration were measured according to the following method. Fluorescence emission was collected from a group of about 10^5 cells located in the excitation path. Excitation beams at 340 nm (Ex340nm) and 380 nm (Ex380 nm) were used and the fluorescence intensities at 510 nm (Em5 10 nm) were monitored. […] Fluorescence emission data was collected for times up to 600 to 1200 seconds depending on the solution added to the cells.\nAn increase in the Ca^2+ concentration caused an increase in the fluorescence at Em510 nm/Ex340nm and at the same time, a decrease at Em510/Ex380nm. The ratio of the two (R) was used to calculate the Ca^2+ concentration using the following formula: [formula] where kd is the equilibrium constant; Rmax is the ratio and Fb is the fluorescence intensity at Ex380nm when Fura-2 is saturated with Ca^2+, Rmin is the ratio and Ff is the fluorescence intensity at Ex380nm when Fura-2 is not bound by Ca^2+. […]"}, "GH3 cells": {"tested_on": "GH3 cells", "assay": "Cell Ca2+ of GH3 cells in isotonic saline (Fura-2)", "settings": "10 μM peptide", "protocol": "as §1\nCa^2+ was measured on an SLM AB-2 fluorescence spectrometer (SLM Instruments, Rochester, N.Y.). […]\nAfter loading with Fura-2, the cover slip containing the GH3 cells was mounted in a custom made holder and placed in a quartz cuvette at an angle of 20 degrees to the excitation beam. The cells on the cover slip were exposed to various test solutions and the changes in calcium ion concentration were measured according to the following method. Fluorescence emission was collected from a group of about 10^5 cells located in the excitation path. Excitation beams at 340 nm (Ex340nm) and 380 nm (Ex380 nm) were used and the fluorescence intensities at 510 nm (Em5 10 nm) were monitored. […]"}}, "note": "Where two headings read alike, the source gives them in different places. Ends that are not written are not given here."}
{"molecule": "COC(=O)C1=C(C)NC(C)=C(C(=O)OC)C1c1ccccc1[N+](=O)[O-]", "note": "[nifedipine]", "values": [{"measurement": "block of depolarization induced Ca2+ increase (comparators, stated by contrast)", "setting": "L-type Ca^2+ channels", "value": "block"}]}
{"molecule": "YCQKWMWTCDEERKCCEGLVCRLWCKKKIEW (cysteine pairing not given here) [α Mechanotoxin]", "values": [{"measurement": "association rate", "setting": "[1]; block of HICI in GH3 cells", "value": "approximately 10^3 m^-1 s^-1"}, {"measurement": "dissociation rate", "setting": "[1]; block of HICI in GH3 cells", "value": "~0.01", "unit": "s⁻¹"}, {"measurement": "Kd", "setting": "[1]; block of HICI in GH3 cells, read-out: equilibrium constant", "value": "~10", "unit": "µM"}, {"measurement": "block of hypotonic cell swelling induced calcium increase (HICI)", "setting": "[1]; purified peptide, GH3 cells", "value": "reversibly blocks"}, {"measurement": "effect on cell Ca2+ in isotonic saline", "setting": "GH3 cells", "value": "decreases cell Ca^2+ to levels seen in the absence of extracellular Ca^2+"}]}
{"molecule": "[Gd+3]", "note": "[Gd^3+]", "values": [{"measurement": "block of depolarization induced Ca2+ increase (comparators, stated by contrast)", "setting": "L-type Ca^2+ channels; GH3 cells, concentration not given", "value": "block"}]}
